From patent US20110038856A1, “METHODS OF TREATING NEOPLASTIC, AUTOIMMUNE AND INFLAMMATORY DISEASES” (Seattle Genetics, Inc., priority 2006, published 2011)

What was measured:
[1] = system: patients with relapsed and refractory acute myeloid leukemia (AML); conditions: low dose with infrequent administration; cited from earlier work
CD33 = CD33 (Homo sapiens, UniProt P20138); assay: SGN-33 signaling in HL-60 cells, primary human monocytes and macrophages (CD33 immunoprecipitation, Western blot); format: cell-based; parameters: endogenous in cells; host or cells: HL-60 (ATCC); primary human CD14+ monocytes (Cambrex); macrophages derived from human PBMCs
Chain of CD33 (P20138 18-364): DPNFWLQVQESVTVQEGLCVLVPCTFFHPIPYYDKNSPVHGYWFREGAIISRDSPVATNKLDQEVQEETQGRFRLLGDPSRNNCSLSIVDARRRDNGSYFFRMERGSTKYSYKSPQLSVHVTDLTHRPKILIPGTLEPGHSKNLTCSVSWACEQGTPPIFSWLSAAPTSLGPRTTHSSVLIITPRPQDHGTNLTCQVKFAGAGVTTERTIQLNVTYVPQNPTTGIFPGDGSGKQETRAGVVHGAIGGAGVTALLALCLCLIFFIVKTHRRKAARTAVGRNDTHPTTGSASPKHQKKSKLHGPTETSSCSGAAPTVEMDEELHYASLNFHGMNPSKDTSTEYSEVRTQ
Protocol: Deglycosylation was confirmed by CE-SDS. […] Cell lysates were prepared and CD33 immunoprecipitated using an anti-CD33 rabbit polyclonal antibody (Santa Cruz Biotechnology, Santa Cruz, Calif.) prior to SDS PAGE gel electrophoresis. Western blot analyses of these samples were performed using the 4G10 phosphotyrosine antibody (Upstate Biotechnology, Temucula, Calif.), anti-CD33 antibody (NovoCastra, Norwell, Mass.), and anti-SHP-1 antibody (Calbiochem, San Diego, Calif.). Control lysate for SHP-1 was prepared from a B cell lymphoma cell line.

HL-60 cells = assay: Mouse AML model, HL-60 cells injected intravenously; format: in vivo, mice; conditions: q4d×5, ip, FIG. 24
Protocol: Mice were implanted with an AML cell line, HL-60, as follows: 5 million HL-60 cells were injected intravenously. The mice were treated with lintuzumab (10 mg/kg, q4d×4, ip), cytarabine (1 mg/kg, 5 mg/kg or 25 mg/kg, q1d×10, or 50 mg/kg or 100 mg/kg, q2d×5, ip) or lintuzumab with cytarabine (dosed as described previously). Treatment began on day one.
To confirm the data of the in vitro study, mice were implanted with an AML cell line, HL-60, as follows: 5 million HL-60 cells were injected intravenously. […] Treatment began on day one.

HEL 92.1.7 cells = assay: Complement-dependent cytotoxicity (CDC) on MDR+ CD33-positive AML cell line; format: cell-based, human; conditions: HEL 92.1.7 cells; FIG. 4
Protocol: The purpose of this study was to determine whether the cytotoxic effects of an anti-CD33 antibody (HuM195) on AML cells could be enhanced by combination treatment with chemotherapeutic drugs. An MDR^+, CD33-positive AML cell line (HEL 92.1.7) was either untreated or preincubated with the indicated concentrations of thalidomide or 5-azacytidine for two hours prior to exposure to the anti-CD33 Ab. Cytotoxic activity was measured using a complement-dependent cytotoxicity (CDC) activity.

[2] = system: patients with advanced myeloid malignancies (AML, MDS, CMML); assay: Phase 1 single-arm dose escalation trial in patients with advanced myeloid malignancies
Protocol: Entry criteria included CD33 expression on >50% of the marrow blasts to ensure that adequate target antigen was present. […] Clinical response was assessed by bone marrow morphology and hematologic improvement. […] Among AML patients, 6 had antecedent hematologic disorder. Dosing cohorts included 1.5 (6), 2.5 (4), 4 (4), and 8 mg/kg (17).

[3] = system: primary human macrophages; assay: Macrophage migration in response to chemoattractants (CytoSelect Cell Migration Assay); format: cell-based
Protocol: The migration of macrophages in response to challenge with plating media containing 10% human serum, 20% conditioned tumor cell media, or 50 ng/ml TGF-β, VEGF, TNF-α, or IFN-γ was evaluated using the CytoSelect Cell Migration Assay (Cell Biolabs, San Diego, Calif.). […] The study was stopped 18 hours later and migration was evaluated after dissociation of the cells from the membrane followed by detection with Cyquant GR dye.
The migration of macrophages in response to challenge with plating media containing 10% human serum or 20% conditioned tumor cell media was evaluated using the CytoSelect Cell Migration Assay (Cell Biolabs, San Diego, Calif.). […] The studies were stopped 18 h later and migration was evaluated after dissociation of the cells from the membrane followed by detection with Cyquant GR dye.

[4] = system: primary human macrophages; assay: Cytokine/chemokine production by primary human macrophages; format: cell-based; conditions: for production of IL-6, TNF-α, RANTES, and MCP-1: pre-incubation 3 hours with antibody, 24 hours
Protocol: Primary human macrophages were generated from long-term cultures of freshly isolated human peripheral blood mononuclear cells (PBMCs; AllCells, Emeryville, Calif. or LifeBlood, Memphis, Tenn.). PBMCs were cultured in tissue culture flasks in RPMI 1640 medium containing glutamine (Invitrogen, Grand Island, N.Y.), 10% heat-inactivated FBS, and antibiotics for 3 to 4 hours. Non-adherent cells were removed by washing with PBS and the adherent cells were cultured in OptiMem-1 medium (Invitrogen) containing 1% heat-inactivated FBS for 1 to 2 hours. The cells were washed with PBS and cultured for 10 to 14 days in X-VIVO-15 medium (Cambrex Bio Science, Walkersville, Md.) containing 500 U/ml GM-CSF (Peprotech, Rocky Hill, N.J.). […]

human CD14+ monocytes = assay: Cytokine/chemokine production by primary human CD14+ monocytes; format: cell-based
[5] = system: primary human macrophages
Protocol: Macrophages were harvested, counted, and cultured in 96-well plates at 35,000 cells per well. G-CSF-mobilized CD14^+ monocytes (Cambrex) were cultured in 96-well plates at 100,000 cells per well (adherent cells) in sterile polypropylene dishes (non-adherent cells).

[6] = HL-60 AML cells and primary human monocytes or macrophages, soluble SGN-33, 30 minutes, FIG. 15

SGN-33: anti-CD33 antibody, a humanized version of mouse monoclonal antibody M195
blast cells [1]: induced significant reductions in blast cells
phosphorylation of CD33 (CD33; [6]): resulted in phosphorylation of CD33
recruitment of SHP-1 (CD33; [6]): recruitment of SHP-1
recruitment of SHP-1 to the CD33 complex (CD33; HL-60 and monocytes, 30 minutes, FIG. 16): resulted in recruitment of SHP-1
time to phosphorylation of CD33 and recruitment of SHP-1 (CD33; HL-60 cells, 3 μg/ml soluble SGN-33, FIG. 17): ≤ 5 min
strength of the phosphorylation response (signal on western blot) (CD33; primary monocytes compared to HL-60 or primary macrophages, opposite for SHP-1 signal, FIG. 15): appeared to be stronger in primary monocytes
survival rate (HL-60 cells; SGN-33 30 mg/kg): ~85%
survival rate (HL-60 cells; SGN-33 3 or 10 mg/kg): ~50%
lysis of AML cells (CDC activity) (HEL 92.1.7 cells): increased lysis of AML cell lines in a dose-dependent manner
tolerability ([2]; 1.5 mg/kg/wk, N=6, previously untreated patients, average age 76 years): well tolerated
patients achieving CR ([2]; among 18 patients with AML): 4
patients achieving CR with incomplete platelet recovery ([2]; among 18 patients with AML): 1
antitumor activity ([2]; an elderly patient with previously untreated AML): antitumor activity was observed
maximal tolerated dose ([2]; at 1.5 mg/kg/wk, N=6): without any evidence that a maximal tolerated dose has been reached
exposure (AUC) ([2]; doses 1.5 to 8 mg/kg): increased relative to dose
tolerability ([2]; doses up to 8 mg/kg/wk): well tolerated
anti-SGN-33 immune responses ([2]; first 15 patients tested): No anti-SGN-33 immune responses were detected
Grade 4 adverse events considered related to antibody ([2]; human, in vivo): none
infusion reactions during subsequent doses ([2]; human, in vivo): uncommon
accumulation ([2]; repeat dosing): accumulation was documented with repeat dosing
Grade 3 adverse events considered related to antibody ([2]; tumor lysis syndrome at 4 mg/kg, febrile neutropenia at 8 mg/kg): 2
chills associated with the first infusion (most common drug-related adverse event) ([2]; weekly iv doses of 1.5 to 8 mg/kg): 11/31
dose limiting toxicity ([2]; weekly iv doses of 1.5 to 8 mg/kg, 31 patients): has not been observed
macrophage migration ([3]; 10% human serum or 20% conditioned media from RPMI 8226 cells, p<0.05, FIG. 21): significantly reduced
blocking of macrophage migration ([3]; SGN-33 added to neuraminidase-treated macrophages, versus neuraminidase alone, FIG. 14C): greater blocking effect
movement of the macrophages toward chemoattractants ([3]; cells pre-treated, 10% serum or conditioned medium, FIG. 14B): significantly reduced
migration of macrophages ([3]; in response to conditioned tumor cell media, TGF-β, VEGF, TNF-α, and IFN-γ): significantly opposed the migration
levels of IL-6, TNF-α, MCP-1, and RANTES ([4]; macrophages treated 1 h prior to IFN-γ, LPS, or TGF-β, supernatants 18 h later, FIG. 18): significantly reduced
production of IL-6, TNF-α, RANTES, and MCP-1 ([4]; in response to IFN-γ, FIG. 6): reduced production
production of IL-6, TNF-α, RANTES, and MCP-1 ([4]; in response to conditioned media from RPMI-8226 and Karpus-620 cells, FIG. 7): reduced production
levels of TNF-α ([4]; primary human macrophages, various doses of SGN-33, 1 hr prior to IFN-γ, 18 h, p<0.05, FIG. 20): significantly reduced levels of TNF-α in a dose-dependent manner
production of IL-6, TNF-α, MCP-1, IL-8, and RANTES (human CD14+ monocytes; CD14+ primary human monocytes activated with IFN-γ, previous studies (Example 3)): significantly reduced
level of RANTES (human CD14+ monocytes; adherent CD14+ monocytes, IFN-γ stimulated, FIG. 10): reduced
level of RANTES (human CD14+ monocytes; adherent CD14+ monocytes, RPMI-8228 conditioned media stimulated, FIG. 11): reduced
level of TNF-α (human CD14+ monocytes; adherent CD14+ monocytes, basal level, FIG. 11): reduced the basal level
levels of IL-6, MCP-1, TNF-α, and IL-8 (human CD14+ monocytes; adherent CD14+ monocytes, basal levels and IFN-γ stimulated levels, 48 hours, FIG. 10): reduced
levels of IL-6, MCP-1, and IL-8 (human CD14+ monocytes; adherent CD14+ monocytes, basal levels and RPMI-8228 conditioned media stimulated levels, FIG. 11): reduced
levels of IL-6, IL-8, TNF-α and MCP-1 (human CD14+ monocytes; non-adherent CD14+ monocytes upon exposure to SGN-33, FIG. 12): small increases
production of cytokines, chemokines and growth factors (human CD14+ monocytes; non-adherent CD14+ monocytes, IFN-γ, FIG. 12): not inhibited
levels of IL-6, MCP-1, IL8 and RANTES (human CD14+ monocytes; non-adherent CD14+ monocytes, stimulated by RPMI-8226 conditioned media, FIG. 12): reduced
IFN-γ-stimulated production of IL-10, IL-10, IL-12, and MIP-1α (human CD14+ monocytes; primary human monocytes treated 1 hr prior to IFN-γ, supernatants 18 h later, p<0.001, FIG. 19): significantly reduced
levels of TNF-α (human CD14+ monocytes; primary human monocytes, various doses of SGN-33, 1 hr prior to IFN-γ, 18 h, p<0.05, FIG. 20): significantly reduced levels of TNF-α in a dose-dependent manner
cell viability [5]: without interfering with cell viability
